Patent publication US20250059172A1, “INDAZOLE COMPOUND AND PHARMACEUTICAL” (NIPPON SHINYAKU CO., LTD., priority 2021, published 2025)
Where a name gives a salt, the structure may show the parent alone.

Columns and labels:
human A549 cells = test: Inhibition test of PGE2 production using human A549 cells; type: cell-based; conditions: IL-1β stimulated A549 cells, 24 h, PGE2 by HTRF, read-out: A549 cell inhibition of PGE2 production IC50
Summary of the method: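 A549 cells were preincubated 60 min with compound in RPMI/3% FBS (0.1% DMSO final), then stimulated with IL-1β (5 ng/well) for 24 h at 37°C. PGE2 was measured by HTRF and PGF2a by EIA; activity was normalized to stimulated minus unstimulated controls, and IC50 derived.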

human mPGES-1 = human mPGES-1 (Homo sapiens (Human), UniProt O14684); test: mPGES-1 inhibitory activity test; type: biochemical; conditions: for IC50: microsomes of CHO-K1 cells expressing human mPGES-1, PGH2 1 μM, PGE2 by HTRF, read-out: mPGES-1 inhibition (IC50 nM); for inhibition at 0.01 µM: 10 nM test compound; for inhibition at 0.1 µM: 100 nM test compound
Chain of human mPGES-1 (O14684 whole entry): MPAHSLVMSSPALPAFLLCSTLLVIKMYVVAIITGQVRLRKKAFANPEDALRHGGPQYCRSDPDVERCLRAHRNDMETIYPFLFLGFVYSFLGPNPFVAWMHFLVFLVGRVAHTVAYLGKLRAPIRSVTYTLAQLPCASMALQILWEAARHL
Summary of the method: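 PGE2 formation was quantified by HTRF and reported as percent inhibition at 10 and 100 nM compound or as IC50. The 60-second reaction at 4° C used 1 μM PGH2, after a 20-minute 4° C preincubation of compound (1% DMSO final) with glutathione-supplemented (2.5 mM, pH 7.4) microsomes. The microsomes were from transiently transfected CHO-K1 cells expressing human mPGES-1.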

| SMILES | IC50 (human A549 cells) [nM] | IC50 (human mPGES-1) [nM] | inhibition at 0.01 µM (human mPGES-1) [%] | inhibition at 0.1 µM (human mPGES-1) [%] |
| --- | --- | --- | --- | --- |
| Cc1ccc(-n2ncc3c(NC(=O)c4cc(CNC(=O)C(C)(C)CO)ccc4Cl)cccc32)cc1C(F)(F)F [Example 259, 2-Chloro-5-{[(3-hydroxy-2,2-dimethylpropanoyl)amino]methyl}-N-{1-[4-methyl-3-(trifluoromethyl)phenyl]-1H-indazol-4-yl}benzamide] | 0.5 |  | 92 | 92 |
| CC(C)(C)c1ccc(-n2ncc3c(NC(=O)c4cc(CNC(=O)C5CC5)ccc4Cl)cccc32)cc1 [Example 14, N-[1-(4-tert-butylphenyl)-1H-indazol-4-yl]-2-chloro-5-{[(cyclopropylcarbonyl)amino]methyl}benzamide] | 0.4 | 1.1 |  |  |
| O=C(Nc1cccc2c1cnn2Cc1ccccc1)c1cc(CNC(=O)C2CC2)ccc1Cl [Example 109, N-(1-benzyl-1H-indazol-4-yl)-2-chloro-5-{[(cyclopropylcarbonyl)amino]methyl}benzamide] | 119 | 2.04 |  |  |
| O=C(CC1CC1)NCc1ccc(Cl)c(C(=O)Nc2cccc3c2cnn3-c2ccc(C(F)(F)F)cc2)c1 [Example 38, 2-Chloro-5-{[(cyclopropylacetyl)amino]methyl}-N-{1-[4-(trifluoromethyl)phenyl]-1H-indazol-4-yl}benzamide] | 7.5 | 5.7 |  |  |
| CC(C)(C)CC(=O)NCc1ccc(Cl)c(C(=O)Nc2cccc3c2cnn3-c2ccc(OC(F)(F)F)cc2)c1 [Example 114, 2-Chloro-5-{[(3,3-dimethylbutanoyl)amino]methyl}-N-{1-[4-(trifluoromethoxy)phenyl]-1H-indazol-4-yl}benzamide] | 1.9 |  | 87 |  |
| CC(C)(C)C(=O)NCc1ccc(Cl)c(C(=O)Nc2cccc3c2cnn3-c2ccc(C(C)(C)F)nc2)c1 [Example 85, 2-Chloro-5-{[(2,2-dimethylpropanoyl)amino]methyl}-N-{1-[6-(2-fluoropropan-2-yl)pyridin-3-yl]-1H-indazol-4-yl}benzamide] | 6 | 8.6 |  |  |
| COc1ccc(-n2ncc3c(NC(=O)c4cc(CNC(=O)CC(C)(C)C)ccc4Cl)cccc32)cc1C(F)(F)F [Example 261, 2-Chloro-5-{[(3,3-dimethylbutanoyl)amino]methyl}-N-{1-[4-methoxy-3-(trifluoromethyl)phenyl]-1H-indazol-4-yl}benzamide] | 1.4 |  | 95 | 100 |
| Cc1ccc(-n2ncc3c(NC(=O)c4cc(CNC(=O)C5CC5)ccc4Cl)cccc32)cn1 [Example 10, 2-Chloro-5-{[(cvclopropylcarbonyl)amino]methyl}-N-[1-(6-methylpyridin-3-yl)-1H-indazol-4-yl]benzamide hydrochloride] | 31.2 | 10 |  |  |
| CC(C)(C)CC(=O)NCc1ccc(Cl)c(C(=O)Nc2cccc3c2cnn3-c2ccc(C(F)(F)F)nc2)c1 [Example 173, 2-Chloro-5-{[(3,3-dimethylbutanoyl)amino]methyl}-N-{1-[6-(trifluoromethyl)pyridin-3-yl]-1H-indazol-4-yl}benzamide] | 6.7 |  | 54 | 86 |
| CC(C)(C)C(=O)NCc1ccc(Cl)c(C(=O)Nc2cccc3c2cnn3-c2ccc(C(F)(F)F)cc2)c1 [Example 50, 2-Chloro-5-{[(2,2-dimethylpropanoyl)amino]methyl}-N-{1-[4-(trifluoromethyl)phenyl]-1H-indazol-4-yl}benzamide] | 3.5 | 14.7 |  |  |
| COCC(=O)NCc1ccc(Cl)c(C(=O)Nc2cccc3c2cnn3-c2ccc(C(F)(F)F)cc2)c1 [Example 21, 2-Chloro-5-{[(methoxyacetyl)amino]methyl}-N-{1-[4-(trifluoromethyl)phenyl]-1H-indazol-4-yl}benzamide] | 68 | 3.8 |  |  |
| Cc1ccc(-n2ncc3c(NC(=O)c4cc(CNC(=O)C5CC5)ccc4Cl)cccc32)cc1 [Example 6, 2-Chloro-5-{[(cyclopropylcarbonyl)amino]methyl}-N-[1-(4-methylphenyl)-1H-indazol-4-yl]benzamide] | 0.6 | 1.3 |  |  |
| Cc1cc(C)c(Cn2ncc3c(NC(=O)c4cc(CNC(=O)C(C)(C)C)ccc4Cl)cccc32)c(C)c1 [Example 91, 2-Chloro-5-{[(2,2-dimethylpropanoyl)amino]methyl}-N-[1-(2,4,6-trimethylbenzyl)-1H-indazol-4-yl]benzamide] | 5.1 | < 1 |  |  |

Results, then the compound that gave them:

| IC50 (human A549 cells) [nM] | IC50 (human mPGES-1) [nM] | inhibition at 0.01 µM (human mPGES-1) [%] | inhibition at 0.1 µM (human mPGES-1) [%] | SMILES |
| --- | --- | --- | --- | --- |
| 3.6 | 2.4 |  |  | COc1ccc(-n2ncc3c(NC(=O)c4cc(CNC(=O)C(C)(C)C)ccc4Cl)cccc32)cc1C(F)(F)F [Example 62, 2-Chloro-5-{[(2,2-dimethylpropanoyl)amino]methyl}-N-{1-[4-methoxy-3-(trifluoromethyl)phenyl]-1H-indazol-4-yl}benzamide] |
| 14.7 |  | 79 | 80 | CCn1ncc2c(NC(=O)c3cc(CNC(=O)C(C)(C)C)ccc3C(F)(F)F)cccc21 [Example 217, 5-{[(2,2-Dimethylpropanoyl)amino]methyl}-N-(1-ethyl-1H-indazol-4-yl)-2-(trifluoromethyl)benzamide] |
| 5.1 |  | 94 | 97 | COc1ccc(-n2ncc3c(NC(=O)c4cc(CNC(=O)C5(O)CC5)ccc4Cl)cccc32)cc1C(F)(F)F [Example 264, 2-Chloro-5-({[(1-hydroxycyclopropyl)carbonyl]amino}methyl)-N-{1-[4-methoxy-3-(trifluoromethyl)phenyl]-1H-indazol-4-yl}benzamide] |
| 101 | 15.7 |  |  | CCOCc1ccc(-n2ncc3c(NC(=O)c4cc(CNC(=O)C(C)(C)C)ccc4Cl)cccc32)cn1 [Example 86, 2-Chloro-5-{[(2,2-dimethylpropanoyl)amino]methyl}-N-{1-[6-(ethoxymethyl)pyridin-3-yl]-1H-indazol-4-yl}benzamide hydrochloride] |
| 2.7 | 1.2 |  |  | CC(C)(C)C(=O)NCc1ccc(Cl)c(C(=O)Nc2cccc3c2cnn3CCc2ccccc2)c1 [Example 95, 2-Chloro-5-{[(2,2-dimethylpropanoyl)amino]methyl}-N-[1-(2-phenylethyl)-1H-indazol-4-yl]benzamide] |
| 10 |  | 81 |  | O=C(Nc1cccc2c1cnn2-c1nccs1)c1cc(CNC(=O)C2CCCC2)ccc1Cl [Example 227, 2-Chloro-5-{[(cyclopentylcarbonyl)amino]methyl}-N-[1-(1,3-thiazol-2-yl)-1H-indazol-4-yl]benzamide] |
| 9.6 |  | 79 |  | CC(C)(C)C(=O)NCc1ccc(Cl)c(C(=O)Nc2cccc3c2cnn3C2CC2)c1 [Example 284, 2-Chloro-5-{[(2,2-dimethylpropanoyl)amino]methyl}-N-(1-cyclopropyl-1H-indazol-4-yl)benzamide] |
| 17.4 |  | 92 | 100 | CC(C)(CO)C(=O)NCc1ccc(Cl)c(C(=O)Nc2cccc3c2cnn3-c2cccc(OC(F)F)c2)c1 [Example 143, 2-Chloro-N-{1-[3-(difluoromethoxy)phenyl]-1H-indazol-4-yl}-5-{[(3-hydroxy-2,2-dimethylpropanoyl)amino]methyl}benzamide] |
| 33 |  | 71 |  | O=C(Nc1cccc2c1cnn2-c1cscn1)c1cc(CNS(=O)(=O)C2CC2)ccc1Cl [Example 193, 2-Chloro-5-{[(cyclopropylsulfonyl)amino]methyl}-N-[1-(1,3-thiazol-4-yl)-1H-indazol-4-yl]benzamide] |
| 17.3 |  | 71 |  | CCn1ncc2c(NC(=O)c3cc(CNC(=O)C4(C(F)(F)F)CC4)ccc3Cl)cccc21 [Example 212, 2-Chloro-N-(1-ethyl-1H-indazol-4-yl)-5-[({[1-(trifluoromethyl)cyclopropyl]carbonyl}amino)methyl]benzamide] |
| 3.1 |  | 72 | 90 | Cc1cc(-n2ncc3c(NC(=O)c4cc(CNC(=O)C5CCCC5)ccc4Cl)cccc32)cc(C)n1 [Example 278, 2-Chloro-5-{[(cyclopentylcarbonyl)amino]methyl}-N-[1-(2,6-dimethylpyridin-4-yl)-1H-indazol-4-yl]benzamide] |
| 1.6 | 9 |  |  | CC(C)(C)C(=O)NCc1ccc(Cl)c(C(=O)Nc2cccc3c2cnn3C2CCCCC2)c1 [Example 98, 2-Chloro-N-(1-cyclohexyl-1H-indazol-4-yl)-5-{[(2,2-dimethylpropanoyl)amino]methyl}benzamide] |
| 5.1 | 3.7 |  |  | COc1ccc(-n2ncc3c(NC(=O)c4cc(CNC(=O)C(C)(C)C)ccc4Cl)cccc32)cc1OC [Example 67, 2-Chloro-N-[1-(3,4-dimethoxyphenyl)-1H-indazol-4-yl]-5-{[(2,2-dimethylpropanoyl)amino]methyl}benzamide] |
| 6.7 | 4.5 |  |  | O=C(Nc1cccc2c1cnn2-c1ccc(C(F)(F)F)cc1)c1cc(CNC(=O)C2CCC2)ccc1Cl [Example 29, 2-Chloro-5-{[(cyclobutylcarbonyl)amino]methyl}-N-{1-[4-(trifluoromethyl)phenyl]-1H-indazol-4-yl}benzamide] |
| 3.4 | 1 |  |  | Cc1cc(OC(F)(F)F)ccc1-n1ncc2c(NC(=O)c3cc(CNC(=O)C(C)(C)C)ccc3Cl)cccc21 [Example 79, 2-Chloro-5-{[(2,2-dimethylpropanoyl)amino]methyl}-N-{1-[2-methyl-4-(trifluoromethoxy)phenyl]-1H-indazol-4-yl}benzamide] |
